Data set [1] relates to AR recruitment to chromatin in LNCaP cells. Description: Chromatin immunoprecipitation (ChIP) with AR antibody in LNCaP cells. The class given is cell-based. Particulars: R1881 10 nM + KCI807 20 uM, 2h. The procedure:
FIGS. 2E and 2F are graphs showing results of tests in which LNCaP cells were treated with R1881 (10 nM), R1881 (10 nM)+KCI807 (20 uM), or vehicle for 2h. The cells were fixed and subjected to the chromatin immunoprecipitation (ChIP) assay using antibody to AR. ChIP signals from established sites of AR recruitment by ELK1 (FIG. 2E) or from canonical ARE enhancer sites associated with the KLK3 and TMPRSS2 genes (FIG. 2F) are plotted as percent of input DNA.
The ability of KCI807 to selectively block recruitment of AR by ELK1 to chromatin in situ was tested.

The target of data set [2] is T1, Full length human AR (Homo sapiens, UniProt P10275).
T1 construct: Full length human AR expressed in insect cells; purchased Abcam (Cambridge Mass.) ab82609; host or cells: insect cells
T1 sequence (P10275 1-920): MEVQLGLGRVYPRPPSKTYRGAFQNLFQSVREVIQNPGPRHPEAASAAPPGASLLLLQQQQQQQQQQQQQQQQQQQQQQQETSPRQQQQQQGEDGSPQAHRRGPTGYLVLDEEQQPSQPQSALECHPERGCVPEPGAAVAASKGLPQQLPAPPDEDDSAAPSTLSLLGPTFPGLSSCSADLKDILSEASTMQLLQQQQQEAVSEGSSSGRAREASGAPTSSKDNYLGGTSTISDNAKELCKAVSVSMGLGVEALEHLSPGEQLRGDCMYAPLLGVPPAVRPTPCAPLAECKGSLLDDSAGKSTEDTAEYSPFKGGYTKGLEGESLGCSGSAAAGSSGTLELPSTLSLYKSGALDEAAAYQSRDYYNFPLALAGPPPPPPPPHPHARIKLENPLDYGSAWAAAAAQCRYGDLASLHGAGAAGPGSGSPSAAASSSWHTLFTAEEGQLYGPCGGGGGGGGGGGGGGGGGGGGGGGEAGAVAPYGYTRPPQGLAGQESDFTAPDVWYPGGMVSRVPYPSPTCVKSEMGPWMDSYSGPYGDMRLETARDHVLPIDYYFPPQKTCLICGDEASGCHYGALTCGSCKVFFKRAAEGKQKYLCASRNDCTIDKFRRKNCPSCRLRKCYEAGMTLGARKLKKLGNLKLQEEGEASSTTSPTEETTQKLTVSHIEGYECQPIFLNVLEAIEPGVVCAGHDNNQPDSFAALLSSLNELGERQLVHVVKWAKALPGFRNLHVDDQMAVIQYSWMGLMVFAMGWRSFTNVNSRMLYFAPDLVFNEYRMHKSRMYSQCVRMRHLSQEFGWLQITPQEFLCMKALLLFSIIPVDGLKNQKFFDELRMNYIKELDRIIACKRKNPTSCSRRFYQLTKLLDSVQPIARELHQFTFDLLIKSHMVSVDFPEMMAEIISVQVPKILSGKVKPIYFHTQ
Description: Surface plasmon resonance, compound (analyte) binding to immobilized AR. Particulars: SPR, compound as analyte. The protocol:
FIG. 2A is a graph showing surface plasmon resonance (SPR) kinetic curves for quantitative analyses of KCI807 binding to AR.
The proteins were eluted with 200 mM imidazole and dialysed against […], pH 7.9 containing 10% glycerol, 20 mM KCl, 2 mM MgCl2, 0.2 mM EDTA, 0.5 mM benzamidine and 0.5 mM DTT.
Amine Coupling Kit, CM5 sensor chip and HBS-N buffer (GE Healthcare) were used for surface plasmon resonance (SPR) analysis. The rate and equilibrium binding constants of the interaction of AR with KCI807 was determined using Biacore 3000 (Biacore, Piscataway, N.J.). […] The immobilization involved activation of carboxymethyl groups on a dextran-coated chip by reaction with N-hydroxysuccinimide, followed by covalent bonding of the ligand (AR) to the chip surface via amide linkages. Reference surfaces were prepared in the same manner but blocked with ethanolamine and thus contained no ligand. […] The interaction (response units, RU) between analyte and ligand was recorded as the ligand RU minus the reference RU. Kinetic values were determined using BIAevaluation software (Biacore), and the data were fitted with the model showing closest match, according to methods described in Drescher DG et al., Methods Mol. Biol., (Clifton, N. J.). […] A 1:1 Langmuir binding model was generally selected, in which all the sensorgrams representing the different analyte concentrations were fitted simultaneously with the wide window of association and dissociation phases. Individual concentration curves were also evaluated to confirm the fitting data. The equilibrium dissociation constant (Kd) was calculated by kd=koff/kon. In all cases, baseline was established in the presence of the vehicle used for the compounds (DMSO) appropriately diluted in BBS-N buffer.
For orientation: SPR reads the build-up and loss of mass on a sensor chip optically.

The subject of data set [3] is 22Rv1 CRPC cells. Put plainly: Colony growth assay. The class given is cell-based, human. The protocol:
FIGS. 4A, 4B, 4C, 4D, 4E, 4F, 4G, and 4H relate to inhibition of AR-dependent PC/CRPC clonogenic survival and cell growth by KCI807 and comparison with enzalutamide. FIG. 4A is an image of 22Rv1 cells that were seeded in phenol red-free growth media and treated with the indicated concentration of KCI807, replenishing the treatments every 48h. Colonies were stained with crystal violet 10 days after plating. Treatments were conducted in triplicate. Representative images are shown. FIG. 4B is a graph showing data from replicate colony formation assays shown in FIG. 4A are plotted as a histogram. Each bar represents the average number of colonies for each triplicate treatment. Cells were trypsinized, and 1000 cells/well were seeded in poly-D-lysine coated 6-well plates in phenol red-free regular growth media. The cells were treated with the indicated concentration of KCI807, which was replenished every 48h. The cells were grown at 37° C. in 5% CO2 for 10 days until colonies-grew to the desired size in the untreated control wells. Colonies were fixed with methanol and stained with crystal violet. Each treatment was conducted in triplicate and the number of colonies was counted using the GelCount™ colony counter and a 350 size cutoff.

Data set [4] concerns binding of ER to ELK1. Description: SPR competition: inhibition of binding of ER (analyte) to immobilized ELK1. Particulars: ER 200 nM, compound 0-32 uM. The protocol:
A fixed concentration of ER (200 nM) was combined with 5,3′-Dihydroxyflavone diluted in a series (0, 1, 2,4, 8, 16, and 32 uM).
A fixed concentration of ER (200 nM) was combined with 5,3′-Dihydroxyflavone diluted in a series (0, 1, 2, 4, 8, 16, and 32 uM). […] This explains the ability of the compound to inhibit the estrogen-dependent growth of breast cancer cells, as ELK1 is required for estrogen-dependent growth of breast cancer cells.

The conditions of data set [5]: mouse, in vivo.
For data set [6], the system named is 22Rv1 human CRPC xenograft. Description: 22Rv1 CRPC tumor xenograft in male SCID mice, tumor growth. Particulars: KCI807 IP 250-300 mg/kg every other day; enzalutamide PO 50-60 mg/Kg daily; from day 3.

What is called koff is the first-order rate constant of dissociation. Higher therefore signals a short-lived complex. The term kon denotes a measure of how fast the partners come together. The term Kd denotes the free concentration of one partner at which half of the binding sites on the other are occupied at equilibrium, for simple one-to-one binding. Usually IC50 stands for the midpoint of a concentration-inhibition curve.

Turning to `O=c1cc(-c2cccc(O)c2)oc2cccc(O)c12` [KCI807, 5,3′-dihydroxyflavone], in data set [1], the “AR association with chromatin sites at which ELK1 recruits AR” value is listed as “prevented association of AR” and the “AR recruitment at canonical ARE enhancer sites (KLK3, TMPRSS2)” value is on record as “did not affect AR recruitment”. In data set [2], this compound returned a dissociation rate constant (koff) of 0.00254 s⁻¹ and an on-rate (kon) of 36700 M⁻¹ s⁻¹. Moreover, in data set [2] (kd=koff/kon, read-out: kd (dissociation constant)), the dissociation constant (Kd) worked out at 69.2 nM. Besides, in data set [3] (22Rv1, beyond 125 nM compound), the “colony growth inhibition (in words)” value is on record as “virtually completely inhibited”. In addition, in data set [3] (Homo sapiens, 22Rv1, 10 days, treatment replenished every 48h, read-out: IC50 of colony growth inhibition), the half-inhibitory concentration (IC50) amounted to 33.1 nM. For the same compound, the “inhibition of binding of ER to immobilized ELK1” value in data set [4] is on record as “inhibits the binding of ER to ELK1”. Moreover, in data set [5], the “symptoms during the study, 22Rv1 xenograft” value is “asymptomatic” and the “weight loss (in words), 22Rv1 xenograft” value is given as “did not show appreciable weight loss”. Also, the “tumor growth inhibition, 22Rv1 xenograft” value in data set [6] is on record as “inhibited”.

The values above are taken from patent US11185527B2, “Methods and compositions relating to steroid hormone receptor-dependent cancers” (Wayne State University, priority 2017, dated 2021).
